Data: ChEMBL document CHEMBL1177848, “Synthesis of novel 6,6a,7,8-tetrahydro-5H-naphtho[1,2-e]pyrimido[4,5-b][1,4]diazepines under microwave irradiation as potential anti-tumor agents” (2010)
Active and inactive are the calls of the source. No cut-off for these calls is given here.

Legend:
[1] = system: UO-31; experiment: Growth inhibition of human UO31 cells at 1 uM after 48 hrs by sulforhodamine B assay; format: functional, cell-based
[2] = system: CAKI-1; experiment: Growth inhibition of human Caki1 cells at 1 uM after 48 hrs by sulforhodamine B assay; format: functional, cell-based
[3] = system: U-251; experiment: Growth inhibition of human U251 cells at 1 uM after 48 hrs by sulforhodamine B assay; format: functional, cell-based
[4] = system: M14; experiment: Growth inhibition of human M14 cells at 1 uM after 48 hrs by sulforhodamine B assay; format: functional, cell-based
[5] = system: OVCAR-4; experiment: Growth inhibition of human OVCAR4 cells after 48 hrs by sulforhodamine B assay; format: functional; conditions: OVCAR-4, 48 h
[6] = system: MCF7; experiment: Growth inhibition of human MCF7 cells after 48 hrs by sulforhodamine B assay; format: functional; conditions: MCF7, 48 h
[7] = system: PC-3; experiment: Growth inhibition of human PC3 cells at 1 uM after 48 hrs by sulforhodamine B assay; format: functional, cell-based
[8] = system: SK-MEL-5; experiment: Growth inhibition of human SK-MEL-5 cells at 1 uM after 48 hrs by sulforhodamine B assay; format: functional, cell-based
[9] = system: IGROV-1; experiment: Growth inhibition of human IGROV1 cells after 48 hrs by sulforhodamine B assay; format: functional; conditions: IGROV-1, 48 h
[10] = system: CCRF-CEM; experiment: Growth inhibition of human CCRF-CEM cells at 1 uM after 48 hrs by sulforhodamine B assay; format: functional, cell-based
[11] = system: UACC-62; experiment: Growth inhibition of human UACC62 cells at 1 uM after 48 hrs by sulforhodamine B assay; format: functional, cell-based
[12] = system: NCI-H522; experiment: Growth inhibition of human NCI-H522 cells after 48 hrs by sulforhodamine B assay; format: functional; conditions: NCI-H522, 48 h
[13] = system: EKVX; experiment: Growth inhibition of human EKVX cells after 48 hrs by sulforhodamine B assay; format: functional
[14] = system: KM12; experiment: Growth inhibition of human KM12 cells at 1 uM after 48 hrs by sulforhodamine B assay; format: functional, cell-based
[15] = system: SR; experiment: Growth inhibition of human SR cells after 48 hrs by sulforhodamine B assay; format: functional
[16] = system: Hs-578T; experiment: Growth inhibition of human Hs 578T cells at 1 uM after 48 hrs by sulforhodamine B assay; format: functional, cell-based
[17] = system: HCC 2998; experiment: Growth inhibition of human HCC2998 cells at 1 uM after 48 hrs by sulforhodamine B assay; format: functional, cell-based
[18] = system: MCF7; experiment: Growth inhibition of human MCF7 cells at 1 uM after 48 hrs by sulforhodamine B assay; format: functional, cell-based
[19] = system: UACC-257; experiment: Growth inhibition of human UACC257 cells at 1 uM after 48 hrs by sulforhodamine B assay; format: functional, cell-based
[20] = system: SF-268; experiment: Growth inhibition of human SF268 cells at 1 uM after 48 hrs by sulforhodamine B assay; format: functional, cell-based
[21] = system: LOX IMVI; experiment: Growth inhibition of human LOXIMVI cells after 48 hrs by sulforhodamine B assay; format: functional
[22] = system: SNB-75; experiment: Growth inhibition of human SNB75 cells at 1 uM after 48 hrs by sulforhodamine B assay; format: functional, cell-based
[23] = system: CAKI-1; experiment: Growth inhibition of human Caki1 cells after 48 hrs by sulforhodamine B assay; format: functional; conditions: CAKI-1, 48 h
[24] = system: SW-620; experiment: Growth inhibition of human SW620 cells at 1 uM after 48 hrs by sulforhodamine B assay; format: functional, cell-based
[25] = system: HOP-92; experiment: Growth inhibition of human HOP92 cells after 48 hrs by sulforhodamine B assay; format: functional; conditions: HOP-92, 48 h
[26] = system: MDA-MB-468; experiment: Growth inhibition of human MDA-MB-468 cells after 48 hrs by sulforhodamine B assay; format: functional; conditions: MDA-MB-468, 48 h
[27] = system: NCI/ADR-RES; experiment: Growth inhibition of human NCI/ADR-RES cells at 1 uM after 48 hrs by sulforhodamine B assay; format: functional, cell-based
[28] = system: NCI-H322M; experiment: Growth inhibition of human […] cells at 1 uM after 48 hrs by sulforhodamine B assay; format: functional, cell-based
[29] = system: OVCAR-3; experiment: Growth inhibition of human OVCAR-3 cells after 48 hrs by sulforhodamine B assay; format: functional; conditions: OVCAR-3, 48 h
[30] = system: NCI-H226; experiment: Growth inhibition of human NCI-H226 cells at 1 uM after 48 hrs by sulforhodamine B assay; format: functional, cell-based
[31] = system: NCI/ADR-RES; experiment: Growth inhibition of human NCI/ADR-RES cells after 48 hrs by sulforhodamine B assay; format: functional
[32] = system: Malme-3M; experiment: Growth inhibition of human MALME-3M cells at 1 uM after 48 hrs by sulforhodamine B assay; format: functional, cell-based
[33] = system: A549; experiment: Growth inhibition of human A549 cells at 1 uM after 48 hrs by sulforhodamine B assay; format: functional, cell-based
[34] = system: HL-60; experiment: Growth inhibition of human HL-60(TB) cells at 1 uM after 48 hrs by sulforhodamine B assay; format: functional, cell-based
[35] = system: RXF 393; experiment: Growth inhibition of human RXF393 cells after 48 hrs by sulforhodamine B assay; format: functional; conditions: RXF 393, 48 h
[36] = system: SK-MEL-2; experiment: Growth inhibition of human SK-MEL-2 cells at 1 uM after 48 hrs by sulforhodamine B assay; format: functional, cell-based
[37] = system: MDA-MB-435; experiment: Growth inhibition of human MDA-MB-435 cells at 1 uM after 48 hrs by sulforhodamine B assay; format: functional, cell-based
[38] = system: OVCAR-3; experiment: Growth inhibition of human OVCAR-3 cells at 1 uM after 48 hrs by sulforhodamine B assay; format: functional, cell-based
[39] = system: IGROV-1; experiment: Growth inhibition of human IGROV1 cells at 1 uM after 48 hrs by sulforhodamine B assay; format: functional, cell-based
[40] = system: SF-295; experiment: Growth inhibition of human SF295 cells at 1 uM after 48 hrs by sulforhodamine B assay; format: functional, cell-based
[41] = system: T47D; experiment: Growth inhibition of human T47D cells after 48 hrs by sulforhodamine B assay; format: functional
[42] = system: UO-31; experiment: Growth inhibition of human UO31 cells after 48 hrs by sulforhodamine B assay; format: functional; conditions: UO-31, 48 h
[43] = system: HOP-62; experiment: Growth inhibition of human HOP62 cells at 1 uM after 48 hrs by sulforhodamine B assay; format: functional, cell-based
[44] = system: BT-549; experiment: Growth inhibition of human BT549 cells after 48 hrs by sulforhodamine B assay; format: functional; conditions: BT-549, 48 h
[45] = system: OVCAR-4; experiment: Growth inhibition of human OVCAR4 cells at 1 uM after 48 hrs by sulforhodamine B assay; format: functional, cell-based
[46] = system: NCI-H522; experiment: Growth inhibition of human NCI-H522 cells at 1 uM after 48 hrs by sulforhodamine B assay; format: functional, cell-based
[47] = system: PC-3; experiment: Growth inhibition of human PC3 cells after 48 hrs by sulforhodamine B assay; format: functional; conditions: PC-3, 48 h
[48] = system: HCT-15; experiment: Growth inhibition of human HCT15 cells at 1 uM after 48 hrs by sulforhodamine B assay; format: functional, cell-based
[49] = read-out: LC50 (the source's name)

Nc1nc(N)c2c(n1)NC(c1ccc(F)cc1)C1CCc3ccccc3C1=N2 (stereo not given)
growth inhibition (GI) [1]: inactive | growth inhibition (GI) [2]: inactive | growth inhibition (GI) [3]: inactive | growth inhibition (GI) [4]: inactive | GI50 [5]: 3.98 µM | LC50 (50% lethal concentration) [5]: 50.2 µM | GI50 [6]: 2.67 µM | LC50 [6]: 36.3 µM | growth inhibition (GI) [7]: inactive | growth inhibition (GI) [8]: inactive | GI50 [9]: 7.79 µM | LC50 (concentration killing 50% of cells) [9]: 63.9 µM | growth inhibition (GI) [10]: inactive | growth inhibition (GI) [11]: inactive | GI50 [12]: 5.66 µM | LC50 [12]: 58 µM | GI50 [13]: 2.83 µM | LC50 [13]: 62.6 µM | growth inhibition (GI) [14]: inactive | GI50 [15]: 1.65 µM | LC50 [15]: 12.5 µM | growth inhibition (GI) [16]: inactive | growth inhibition (GI) [17]: inactive | growth inhibition (GI) [18]: inactive | growth inhibition (GI) [19]: inactive | growth inhibition (GI) [20]: inactive | GI50 [21]: 3.98 µM | LC50 [21]: 43 µM | growth inhibition (GI) [22]: inactive | GI50 [23]: 2.72 µM | CC50 [23, 49]: 44.6 µM | growth inhibition (GI) [24]: inactive | GI50 [25]: 1.17 µM | LC50 (50% lethal concentration) [25]: 31.5 µM | GI50 [26]: 1.43 µM | CC50 [26, 49]: 33 µM | growth inhibition (GI) [27]: inactive | growth inhibition (GI) [28]: inactive | GI50 [29]: 4.15 µM | LC50 (lethal concentration, 50% cell kill) [29]: 43.2 µM | growth inhibition (GI) [30]: inactive | GI50 [31]: 3.19 µM | LC50 (concentration killing 50% of cells) [31]: 39.4 µM | growth inhibition (GI) [32]: inactive | growth inhibition (GI) [33]: inactive | growth inhibition (GI) [34]: inactive | GI50 [35]: 5.48 µM | LC50 (50% lethal concentration) [35]: 60.4 µM | growth inhibition (GI) [36]: inactive | growth inhibition (GI) [37]: inactive | growth inhibition (GI) [38]: inactive | growth inhibition (GI) [39]: inactive | growth inhibition (GI) [40]: inactive | GI50 [41]: 3.86 µM | CC50 [41, 49]: 62.9 µM | GI50 [42]: 3.34 µM | LC50 [42]: 55.3 µM | growth inhibition (GI) [43]: inactive | GI50 [44]: 3.89 µM | CC50 [44, 49]: 43.5 µM | growth inhibition (GI) [45]: inactive | growth inhibition (GI) [46]: inactive | GI50 [47]: 2.03 µM | LC50 [47]: 40.3 µM | growth inhibition (GI) [48]: inactive
